Results: publication PMC12524732 (2025)

Columns and labels:
[1] = system: c-KIT2 (DNA, G4) CGGGCGGGCGCTAGGGAGGGT; assay: 1H-NMR titration; conditions: 20 mM KCl; 10 mM KH2PO4, pH 7.0, 25 °C; 0.2 mM DNA; up to 8 equivalents; shifts up to ~50 Hz, 5′ G-quartet
[2] = system: c-MYC (DNA, G4) TGAGGGTGGGTAGGGTGGGTAA; assay: ITC; conditions: 20 mM KCl; 10 mM KH2PO4, pH 7.0, 25 °C; ~20 µM DNA; up to 8 equivalents; Kb and n not determinable
[3] = system: dsDNA duplex (DNA, duplex) GTAACTAGTTAACGATC/GATCGTTAACTAGTTAC; assay: 1H-NMR titration; conditions: 20 mM KCl; 10 mM KH2PO4, pH 7.0, 25 °C; 0.2 mM DNA; up to 4 equivalents; no shifts
[4] = system: mutTel24 (DNA, G4) TTGGGTTAGGGTTAGGGTTAGGGA; assay: 1H-NMR titration; conditions: 20 mM KCl; 10 mM KH2PO4, pH 7.0, 25 °C; 0.2 mM DNA; up to 4 equivalents; no shifts
[5] = system: c-KIT2 (DNA, G4) CGGGCGGGCGCTAGGGAGGGT; assay: ITC; conditions: 20 mM KCl; 10 mM KH2PO4, pH 7.0, 25 °C; ~20 µM DNA; up to 8 equivalents; Kb and n not determinable
[6] = system: c-MYC (DNA, G4) TGAGGGTGGGTAGGGTGGGTAA; assay: 1H-NMR titration; conditions: 20 mM KCl; 10 mM KH2PO4, pH 7.0, 25 °C; 0.2 mM DNA; up to 8 equivalents; shifts up to ~70 Hz, mainly 3′ G-quartet

Q: For `CC[C@]1(O)C[C@H]2CN(CCc3c([nH]c4ccccc34)[C@@](C(=O)OC)(c3cc4c(cc3OC)N(C=O)[C@H]3[C@@](O)(C(=O)OC)[C@H](OC(C)=O)[C@]5(CC)C=CCN6CC[C@]43[C@@H]65)C2)C1`, which binding [1] is on record?
A: weak

Q: What about the “ΔH°” value [2] of the same compound?
A: −11.7 ± 2.0 kJmol^−1

Q: And the binding [3]?
A: no

Q: And the binding [4]?
A: no

Q: And the “ΔH°” value [5]?
A: −52.8 ± 5.8 kJmol^−1

Q: And the binding [6]?
A: weak
